{"source": "patent US12403167B2", "about": "“Phenylethanoid glycoside extract from Acanthus ilicifolius L., preparation method thereof and use as anti-liver injury medicament” (OCEAN UNIVERSITY OF CHINA, priority 2019, dated 2025)", "key": {"[1]": {"system": "CCl4-induced acute liver injury mice", "experiment": "Serum ALT, AST, SOD and MDA in CCl4-induced liver injury mice", "format": "in vivo", "conditions": "150 mg/kg once/d for 3 days before CCl4; blood 8 h after CCl4; n = 8, x ± s", "experimental": "(§1) Forty eight C57 mice (20-22 g) of both genders were supplied by the Experimental Animal Center of Hubei Province, China (NO. 42000600033017). The above 48 mice were randomly divided into 6 groups (8 mice each group), and the phenylethanoid glycoside extract of the present disclosure (the phenylethanoid glycoside group, APhGs) were intraperitoneally injected with the doses of 300 mg/kg (high dose group), 150 mg/kg (medium dose group), and 75 mg/kg (low dose group). The positive group was given silybin (150 mg/kg), and the normal group, as well as model group was given normal saline. All groups were treated as above once/d for 3 consecutive days. Two hours after the last administration, the normal group was intraperitoneally injected with 15 μL of olive oil/mouse, and the other groups were intraperitoneally injected with 15 μL of 50% CCl4 (diluted with olive oil 1:1)/mouse. Eight hours later, all the mice were anesthetized. Then blood was collected by cardiac puncture, and liver tissue was collected for testing biochemical indexes and making pathological sections.\nThe detection of alanine aminotransferase (ALT) and aspartate aminotransferase (AST) of serum samples from each group mice were conducted according to the instructions of ELISA kit for ALT and AST. The absorbances (OD values) of serum ALT and AST at 450 nm were obtained by a microplate reader. The ALT and AST enzyme activities were calculated based on the OD values.\nThe detection of superoxide dismutase (SOD) and malondialdehyde (MDA) of serum samples from each group of mice were conducted according to the instructions of ELISA kit for SOD and MDA. The OD values of serum SOD at 550 nm and MDA at 532 nm were obtained by a microplate reader, respectively. The SOD and MDA enzyme activities were calculated based on the OD values.\nImmunohistochemical analysis software: Image-pro plus 6.0 (Media Cybernetics, Inc., Rockville, MD, USA); experimental data statistical software: GraphPad Prism 7. The results were represented by mean values ±standard deviation (x±s). The difference P<0.05 meant statistically significant."}, "L-02 hepatocytes": {"system": "L-02 hepatocytes", "experiment": "CCl4-induced L-02 hepatocyte damage, CCK-8 cell viability", "format": "cell-based", "conditions": "20 μg/mL, 15 mM CCl4, 24 h, CCl4 model group 24.22±0.33%", "experimental": "L-02 hepatocytes were provided by the China Center for Type Culture Collection (CCTCC). The L-02 hepatocytes were cultured in a medium containing 1640 complete culture medium and DMEM complete medium with 5% CO2 at a constant temperature (37° C.). The cells were harvested in the exponential growth phase. A suspension of 1×10^6 cells/mL was prepared, and then 100 μL of this suspension was added to each well of a 96-well plate with tested medium. The groups were divided into: normal group, negative control group, CCl4 model group, positive group (silybin), and high-, medium-, and low-dosage APhGs groups. After incubation for 24 h, the cells in the experimental group and the positive group were treated with different concentrations of APhGs and silybin. Both the CCl4 model group and the negative control group were added with the same amount of DMSO. Each treatment was repeated five times. […]\nDetermination of cell viability: 10 μL of CCK8 was added to each well to incubate at 37° C. for 2 h. The culture plates were measured with a microplate reader to obtain the absorbances at 450 nm. The cell viability values were calculated by the following formula: Cell viability (%)=(ODsample−ODblank)×100/(ODcontrol−ODblank)\nODsample was the absorbance of the experimental group, ODcontrol was the absorbance of the negative control group, ODblank was the absorbance of the blank control."}, "[2]": {"system": "CCl4-induced acute liver injury mice", "experiment": "SOD and MDA in liver tissue homogenate of CCl4-induced liver injury mice", "format": "in vivo", "conditions": "150 mg/kg once/d for 3 days before CCl4; liver 8 h after CCl4; n = 8, x ± s", "experimental": "as §1, with “Then blood was collected by cardiac puncture, and liver tissue was collected for testing biochemical indexes and making pathological sections.” left out\nThe detection of SOD and MDA of liver homogenate samples from each group mice were conducted according to the instructions of ELISA kit for SOD and MDA. The OD values of liver SOD at 550 nm and MDA at 532 nm were obtained by a microplate reader, respectively. The SOD and MDA enzyme activities were calculated based on the OD values. […]"}}, "data": [{"compound": "COc1cc(C2Oc3cc([C@H]4Oc5cc(O)cc(O)c5C(=O)[C@@H]4O)ccc3OC2CO)ccc1O", "note": "(stereo partly shown) [Positive group, silybin]", "values": [{"measurement": "serum ALT", "setting": "[1]", "value": 736.27, "unit": "U/L"}, {"measurement": "serum AST", "setting": "[1]", "value": 776.68, "unit": "U/L"}, {"measurement": "serum MDA", "setting": "[1]", "value": 8.32, "unit": "µM"}, {"measurement": "serum SOD", "setting": "[1]", "value": 743.47, "unit": "U/mL"}, {"measurement": "cell survival rate", "setting": "L-02 hepatocytes", "value": "35.92±2.15", "unit": "%"}, {"measurement": "liver tissue MDA", "setting": "[2]", "value": "0.56 ± 0.08", "unit": "nmol/mg prot"}, {"measurement": "liver tissue SOD", "setting": "[2]", "value": 610.91, "unit": "U/mg prot"}]}]}
